For 23 compounds, IC50 results are on record in patent US7569578B2, “Heterocyclic anti-migraine agents” (Bristol-Meyers Squibb Company, priority 2003, dated 2009).

Each structure is given as a SMILES string.

The target of this assay is T1, Human CGRP1 Receptor (Homo sapiens, UniProt O60894+Q16602).
T1 construct: endogenous in cells; host or cells: SK-N-MC cells (membrane homogenate)
T1 sequence (Q16602 23-461): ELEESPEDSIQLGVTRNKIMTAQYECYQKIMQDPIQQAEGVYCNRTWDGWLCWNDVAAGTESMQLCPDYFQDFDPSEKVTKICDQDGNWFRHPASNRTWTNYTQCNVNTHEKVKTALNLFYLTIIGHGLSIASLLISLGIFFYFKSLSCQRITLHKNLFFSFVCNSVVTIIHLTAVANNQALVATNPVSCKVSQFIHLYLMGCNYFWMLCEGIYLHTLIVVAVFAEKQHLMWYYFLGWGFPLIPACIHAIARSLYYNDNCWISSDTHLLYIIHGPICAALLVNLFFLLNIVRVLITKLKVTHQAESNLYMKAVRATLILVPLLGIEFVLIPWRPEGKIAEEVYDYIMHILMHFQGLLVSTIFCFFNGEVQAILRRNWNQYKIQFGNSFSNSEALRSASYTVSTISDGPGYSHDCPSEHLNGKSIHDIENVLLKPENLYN
T1 sequence (O60894 27-148): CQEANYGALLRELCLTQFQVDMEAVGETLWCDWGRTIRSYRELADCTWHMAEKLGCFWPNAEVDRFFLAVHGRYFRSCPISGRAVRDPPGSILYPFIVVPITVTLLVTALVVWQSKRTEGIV
The assay can be described thus: CGRP Binding Assay ([125I]-CGRP radioligand displacement, SK-N-MC membrane homogenate). The settings on record: [125I]-CGRP displacement, SK-N-MC homogenate, room temperature 2 h; read-out: Human CGRP1 Receptor IC50. The method, then:
Tissue Culture. SK-N-MC cells were grown at 37° C. in 5% CO2 as a monolayer in medium consisting of MEM with Earle's salts and L-glutamine (Gibco) supplemented with 10% fetal bovine serum (Gibco).
Cell Pellets. […] The cells were transferred from plates to polypropylene tubes (16×100 mm) and homogenized using a polytron. Homogenates were centrifuged at 32,000×g for 30 min. The pellets were resuspended in cold hypotonic lysis buffer with 0.1% mammalian protease inhibitor cocktail (Sigma) and assayed for protein concentration. The SK-N-MC homogenate was then aliquoted and stored at −80° C. until needed.
Radioligand Binding Assay. The compounds of invention were solubilized and carried through serial dilutions using 100% DMSO. Aliquots from the compound serial dilutions were further diluted 25 fold into assay buffer (50 mM Tris-Cl pH 7.5, 5 mM MgCl2, 0.005% Triton X-100) and transferred (volume 50 μl) into 96 well assay plates. […] SK-N-MC pellets were thawed, diluted in assay buffer with fresh 0.1% mammalian protease inhibitor cocktail (Sigma), and homogenized again. SK-N-MC homogenate (5 μg/well) was added in a volume of 100 μl. The assay plates were then incubated at room temperature for 2 h. Assays were stopped by addition of excess cold wash buffer (20 mM Tris-Cl pH 7.5, 0.1% BSA) immediately followed by filtration over glass fiber filters (Whatman GF/B) previously soaked in 0.5% PEI. Non-specific binding was defined with 1 μM beta-CGRP. Protein bound radioactivity was determined using a gamma or scintillation counter.
On the technique in general: Loss of bound radioactivity is the signal in a displacement assay; it reports binding, not function.
For orientation: IC50 means the concentration at which inhibition is half-maximal. For `Cc1cc(CC(CC(=O)N2CCC(N3Cc4ccccc4NC3=O)CC2)c2ccccn2)cc2cn[nH]c12` (racemic) [Example 1, (±)-3-{1-[4-(7-Methyl-1H-indazol-5-yl)-3-pyridin-2-yl-butyryl]-piperidin-4-yl}-3,4-dihydro-1H-quinazolin-2-one], the IC50 is less than 10 nM.
Take `Cc1cc(CC(CC(=O)N2CCC(N3Cc4ccccc4NC3=O)CC2)c2nc(Cc3ccccc3)no2)cc2cn[nH]c12` (racemic) [Example 2, (±)-3-{1-[3-(3-Benzyl-[1,2,4]oxadiazol-5-yl)-4-(7-methyl-1H-indazol-5-yl)-butyryl]-piperidin-4-yl}-3,4-dihydro-1H-quinazolin-2-one]: the IC50 is less than 10 nM.
For `Cc1cc(CC(CC(=O)N2CCC(N3Cc4ccccc4NC3=O)CC2)c2nc(CN3CCCCC3)no2)cc2cn[nH]c12` (racemic) [Example 3, (±)-3-{1-[4-(7-Methyl-1H-indazol-5-yl)-3-(3-piperidin-1-ylmethyl [1,2,4]oxadiazol-5-yl)-butyryl]-piperidin-4-yl}-3,4-dihydro-1H-quinazolin-2-one] the value was 10 to 100 nM; for `Cc1cc(CC(CC(=O)N2CCC(N3Cc4ccccc4NC3=O)CC2)c2nc(-c3ccccc3)no2)cc2cn[nH]c12` (racemic) [Example 4, (±)-3-{1-[4-(7-Methyl-1H-indazol-5-yl)-3-(3-phenyl-[1,2,4]oxadiazol-5-yl)-butyryl]-piperidin-4-yl}-3,4-dihydro-1H-quinazolin-2-one], 10 to 100 nM.
Under `Cc1noc(C(CC(=O)N2CCC(N3Cc4ccccc4NC3=O)CC2)Cc2cc(C)c3[nH]ncc3c2)n1` (racemic) [Example 5, (±)-3-{1-[4-(7-Methyl-1H-indazol-5-yl)-3-(3-methyl-[1,2,4]oxadiazol-5-yl)-butyryl]-piperidin-4-yl}-3,4-dihydro-1H-quinazolin-2-one] stands 10 to 100 nM; under `Cc1cc(CC(CC(=O)N2CCC(N3Cc4ccccc4NC3=O)CC2)c2nc(Cc3ccncc3)no2)cc2cn[nH]c12` (racemic) [Example 6, (±)-3-{1-[4-(7-Methyl-1H-indazol-5-yl)-3-(3-pyridin-4-ylmethyl-[1,2,4]oxadiazol-5-yl)-butyryl]-piperidin-4-yl}-3,4-dihydro-1H-quinazolin-2-one], 10 to 100 nM.
In the case of `Cc1cc(CC(CC(=O)N2CCC(N3Cc4ccccc4NC3=O)CC2)c2nc(CN(C)C)no2)cc2cn[nH]c12` (racemic) [Example 7, (±)-3-{1-[3-(3-Dimethylaminomethyl-[1,2,4]oxadiazol-5-yl)-4-(7-methyl-1H-indazol-5-yl)-butyryl]-piperidin-4-yl}-3,4-dihydro-1H-quinazolin-2-one], the IC50 was 10 to 100 nM.
Under `Cc1cc(CC(CC(=O)N2CCC3(CC2)OC(=O)Nc2ccccc23)c2nc(Cc3ccccc3)no2)cc2cn[nH]c12` (racemic) [Example 8, (±)-3-{1-[3-(3-Benzyl-[1,2,4]oxadiazol-5-yl)-4-(7-methyl-1H-indazol-5-yl)-butyryl]-4,4′-piperidinyl}-1′,2′-dihydro-2′-oxospiro-[4H-3′,1-benzoxazine] stands 10 to 100 nM; under `Cc1noc(C(CC(=O)N2CCC3(CC2)OC(=O)Nc2ccccc23)Cc2cc(C)c3[nH]ncc3c2)n1` (racemic) [Example 9, (±)-3-{1-[3-(3-Methyl-[1,2,4]oxadiazol-5-yl)-4-(7-methyl-1H-indazol-5-yl)-butyryl]-4,4′-piperidinyl}-1′,2′-dihydro-2′-oxospiro-[4H-3′,1-benzoxazine], 100 to 1000 nM; under `Cc1cc(CC(NC(=O)N2CCC(N3Cc4ccccc4NC3=O)CC2)c2nc(Cc3ccccc3)no2)cc2cn[nH]c12` (racemic) [Example 10, (±)-4-(2-Oxo-1,4-dihydro-2H-quinazolin-3-yl)-piperidine-1-carboxylic acid [1-(3-benzyl-[1,2,4]oxadiazol-5-yl)-2-(7-methyl-1H-indazol-5-yl)-ethyl]-amide], less than 10 nM.
Under `Cc1noc(C(Cc2cc(C)c3[nH]ncc3c2)NC(=O)N2CCC(N3Cc4ccccc4NC3=O)CC2)n1` (racemic) [Example 11, (±)-4-(2-Oxo-1,4-dihydro-2H-quinazolin-3-yl)-piperidine-1-carboxylic acid [2-(7-methyl-1H-indazol-5-yl)-1-(3-methyl-[1,2,4]oxadiazol-5-yl)-ethyl]-amide] stands 10 to 100 nM; under `Cc1cc(CC(NC(=O)N2CCC(N3Cc4ccccc4NC3=O)CC2)c2nc(Cc3ccncc3)no2)cc2cn[nH]c12` (racemic) [Example 12, (±)-4-(2-Oxo-1,4-dihydro-2H-quinazolin-3-yl)-piperidine-1-carboxylic acid [2-(7-methyl-1H-indazol-5-yl)-1-(3-pyridin-4-ylmethyl-[1,2,4]oxadiazol-5-yl)-ethyl]-amide], 10 to 100 nM; under `Cc1cc(CC(NC(=O)N2CCC(N3Cc4ccccc4NC3=O)CC2)c2nc(CN(C)C)no2)cc2cn[nH]c12` (racemic) [Example 13, (±)-4-(2-Oxo-1,4-dihydro-2H-quinazolin-3-yl)-piperidine-1-carboxylic acid [1-(3-dimethylaminomethyl-[1,2,4]oxadiazol-5-yl)-2-(7-methyl-1H-indazol-5-yl)-ethyl]-amide], 100 to 1000 nM.
As to `CCc1cc(CC(NC(=O)N2CCC(N3Cc4ccccc4NC3=O)CC2)c2nnn[nH]2)cc2c(C)n[nH]c12` (racemic) [Example 14, (±)-4-(2-Oxo-1,4-dihydro-2H-quinazolin-3-yl)-piperidine-1-carboxylic acid [2-(7-ethyl-3-methyl-1H-indazol-5-yl)-1-(1H-tetrazol-5-yl)-ethyl]-amide], the IC50 lay within 100 to 1000 nM.
For `CCc1cc(CC(NC(=O)N2CCC(N3Cc4ccccc4NC3=O)CC2)c2nnn(CCc3ccccc3)n2)cc2c(C)n[nH]c12` (racemic) [Example 16, (±)-4-(2-Oxo-1,4-dihydro-2H-quinazolin-3-yl)-piperidine-1-carboxylic acid [2-(7-ethyl-3-methyl-1H-indazol-5-yl)-1-(2-phenethyl-2H-tetrazol-5-yl)-ethyl]-amide] the value was 10 to 100 nM; for `CCc1cc(CC(NC(=O)N2CCC(N3Cc4ccccc4NC3=O)CC2)c2nnnn2C)cc2c(C)n[nH]c12` (racemic) [Example 17, (±)-4-(2-Oxo-1,4-dihydro-2H-quinazolin-3-yl)-piperidine-1-carboxylic acid [2-(7-ethyl-3-methyl-1H-indazol-5-yl)-1-(1-methyl-1H-tetrazol-5-yl)-ethyl]-amide], 10 to 100 nM.
For `CCc1cc(CC(NC(=O)N2CCC(N3Cc4ccccc4NC3=O)CC2)c2nnn(CC(=O)c3ccccc3)n2)cc2c(C)n[nH]c12` (racemic) [Example 20, (±)-4-(2-Oxo-1,4-dihydro-2H-quinazolin-3-yl)-piperidine-1-carboxylic acid [2-(7-ethyl-3-methyl-1H-indazol-5-yl)-1-(2-oxo-2Phenethyl-2H-tetrazol-5-yl)-ethyl]-amide], the IC50 fell in the range of 10 to 100 nM.
For `CCc1cc(CC(NC(=O)N2CCC(N3Cc4ccccc4NC3=O)CC2)c2nnnn2CC(=O)c2ccccc2)cc2c(C)n[nH]c12` (racemic) [Example 21, (±)-4-(2-Oxo-1,4-dihydro-2H-quinazolin-3-yl)-piperidine-1-carboxylicacid [2-(7-ethyl-3-methyl-1H-indazol-5-yl)-1-[1-(2-oxo-2-phenyl-ethyl)-1H-tetrazol-5-yl)-ethyl]-amide] the value was 10 to 100 nM.
Under `CCc1ccnc(C(CC(=O)N2CCC(N3Cc4ccccc4NC3=O)CC2)Cc2cc(C)c3[nH]ncc3c2)c1` (racemic) [Example 22, (±)-3-(1-(3-(4-Ethylpyridin-2-yl)-4-(7-methyl-1H-indazol-5-yl)butanoyl)piperidin-4-yl)-3,4-dihydroquinazolin-2(1H)-one] stands 10 to 100 nM; under `Cc1cc(CC(CC(=O)N2CCC(N3Cc4cccc(F)c4NC3=O)CC2)c2ccccn2)cc2cn[nH]c12` (racemic) [Example 23, (±)-8-Fluoro-3-(1-(4-(7-methyl-1H-indazol-5-yl)-3-(pyridin-2-yl)butanoyl)piperidin-4-yl)-3,4-dihydroquinazolin-2(1H)-one], 10 to 100 nM; under `Cc1cc(CC(CC(=O)N2CCC(c3cc4ccccc4[nH]c3=O)CC2)c2ccccn2)cc2cn[nH]c12` (racemic) [Example 24, (±)-3-(1-(4-(7-Methyl-1H-indazol-5-yl)-3-(pyridin-2-yl)butanoyl)piperidin-4-yl)quinolin-2(1H)-one], 10 to 100 nM.
Regarding `Cc1cccnc1C(CC(=O)N1CCC(N2Cc3ccccc3NC2=O)CC1)Cc1cc(C)c2[nH]ncc2c1` (racemic) [Example 25, (±)-3-(1-(4-(7-Methyl-1H-indazol-5-yl)-3-(3-methylpyridin-2-yl)butanoyl)piperidin-4-yl)-3,4-dihydroquinazolin-2(1H)-one], the IC50 was less than 10 nM.
For `Cc1ccc(C(CC(=O)N2CCC(N3Cc4ccccc4NC3=O)CC2)Cc2cc(C)c3[nH]ncc3c2)nc1` (racemic) [Example 26, (±)-3-(1-(4-(7-Methyl-1H-indazol-5-yl)-3-(5-methylpyridin-2-yl)butanoyl)piperidin-4-yl)-3,4-dihydroquinazolin-2(1H)-one] the value was 10 to 100 nM.
